Common to all, as to assay type: cell-based
The subject of assay [1] is susceptible strains. Nature of the assay: in vitro antibacterial evaluation, susceptible strains. The conditions noted are these: vs minocycline.
The test system of assay [2] is tetracycline resistant strains containing the tetM resistance determinant. Nature of the assay: in vitro antibacterial evaluation, tetM strains. The settings on record: S. aureus UBMS 88-5, 90-1 and 90-2, E. coli UBMS 89-1 and 90-4.
The test system of assay [3] is S. aureus IVES 2943. Nature of the assay: MIC, agar dilution method. The conditions noted are these: Staphylococcus aureus.
Assay [4] concerns S. aureus UBMS 88-5 Tet M. Nature of the assay: microbe, parasite or virus in culture. The conditions noted are these: Staphylococcus aureus, UBMS885TETM, 18 h.
Assay [5] deals with E. coli J2175. Nature of the assay: MIC, agar dilution method. The conditions noted are these: Escherichia coli, 18 hours at 35° C., read-out: MIC.
Assay [6] relates to S. aureus ROSE (MP). Nature of the assay: MIC, agar dilution method. The settings on record: Staphylococcus aureus, 18 hours at 35° C.
The test system of assay [7] is S. aureus NEMC 8769. Nature of the assay: MIC, agar dilution method. The conditions noted are these: Staphylococcus aureus, NEMC8769, 18 h.
In assay [8] the test system is E. coli J3272 Tet C. Nature of the assay: microbe, parasite or virus in culture. The conditions noted are these: Escherichia coli, J3272TETC, 18 h.
For assay [9], the system named is E. coli UBMS 89-1 Tet M. Nature of the assay: microbe, parasite or virus in culture. The settings on record: Escherichia coli, UBMS891TETM, 18 h, 18 hours at 35° C.
Assay [10] has as its system Enterococcus 12201. Nature of the assay: MIC, agar dilution method. The conditions noted are these: Enterococcus, 12201, 18 h, 18 hours at 35° C.
The test system of assay [11] is E. faecalis ATCC 29212. Nature of the assay: MIC, agar dilution method. The settings on record: Enterococcus faecalis.
The subject of assay [12] is E. coli BAJ9003 IMP MUT. Nature of the assay: microbe, parasite or virus in culture. The settings on record: Escherichia coli, BAJ9003IMPMUT, 18 h, 18 hours at 35° C.
The test system of assay [13] is S. aureus UBMS 90-2 Tet M. Nature of the assay: microbe, parasite or virus in culture. The conditions noted are these: Staphylococcus aureus, UBMS902TETM, 18 h, 18 hours at 35° C.
For assay [14], the system named is E. coli MC 4100 Tet sens. Nature of the assay: MIC, agar dilution method. The conditions noted are these: Escherichia coli, 18 hours at 35° C., read-out: MIC.
In assay [15] the test system is S. aureus UBMS 90-1 Tet M. Nature of the assay: microbe, parasite or virus in culture. The settings on record: Staphylococcus aureus, UBMS901TETM, 18 h, 18 hours at 35° C.
Assay [16] deals with E. coli UBMS 89-2 Tet sens. Nature of the assay: MIC, agar dilution method. The settings on record: Escherichia coli, UBMS892TETSENS, 18 h, 18 hours at 35° C., read-out: MIC.
Assay [17] concerns E. coli MC 4100 TNIOC Tet B. Nature of the assay: microbe, parasite or virus in culture. The settings on record: Escherichia coli, 18 h, 18 hours at 35° C.
Assay [18] concerns S. hemolyticus AVHAH 88-3. Nature of the assay: MIC, agar dilution method. The settings on record: Streptococcus pyogenes.
In assay [19] the test system is E. coli UBMS 90-5 sens. Nature of the assay: MIC, agar dilution method. The settings on record: Escherichia coli, UBMS905SENS, 18 hours at 35° C., read-out: MIC.
In assay [20] the test system is E. coli #311 (MP). Nature of the assay: MIC, agar dilution method. The settings on record: Escherichia coli, 18 hours at 35° C., read-out: MIC.
Assay [21] has as its system E. coli J3272 Tet D. Nature of the assay: microbe, parasite or virus in culture. The conditions noted are these: Escherichia coli, J3272TETD, 18 h.
Assay [22] deals with S. mariescens FPOR 8733. Nature of the assay: MIC, agar dilution method. The settings on record: 18 hours at 35° C.
The test system of assay [23] is S. aureus ATCC 29213. Nature of the assay: MIC, agar dilution method. The settings on record: Staphylococcus aureus, ATCC29213, 18 h, 18 hours at 35° C.
Assay [24] deals with E. coli UBMS 88-1 Tet B. Nature of the assay: microbe, parasite or virus in culture. The conditions noted are these: Escherichia coli, UBMS881TETB, 18 h, 18 hours at 35° C.
The subject of assay [25] is Ps. acruginosa ATCC 27853. Nature of the assay: MIC, agar dilution method.
Assay [26] deals with S. aureus UBMS 88-7 Tet K. Nature of the assay: microbe, parasite or virus in culture. The settings on record: Staphylococcus aureus, UBMS887TETK, 18 h, 18 hours at 35° C.
The test system of assay [27] is S. aureus UBMS 90-3. Nature of the assay: MIC, agar dilution method. The conditions noted are these: Staphylococcus aureus, UBMS903, 18 h.
Assay [28] relates to S. aureus SMITH (MP). Nature of the assay: MIC, agar dilution method. The conditions noted are these: Staphylococcus aureus, 18 hours at 35° C.
Assay [29] deals with S. aureus IVES 1 983. Nature of the assay: MIC, agar dilution method. The settings on record: Staphylococcus aureus.
The subject of assay [30] is E. coli ATCC 25922. Nature of the assay: MIC, agar dilution method. The settings on record: Escherichia coli, ATCC25922, 18 hours at 35° C., read-out: MIC.
Assay [31] concerns S. aureus UBMS 88-4. Nature of the assay: MIC, agar dilution method. The conditions noted are these: Staphylococcus aureus, UBMS884, 18 hours at 35° C., read-out: MIC.
Assay [32] relates to X. maltophilia NEMC 87210. Nature of the assay: MIC, agar dilution method. The conditions noted are these: Stenotrophomonas maltophilia.
For assay [33], the system named is E. coli UBMS 90-4 Tet M. Nature of the assay: microbe, parasite or virus in culture. The conditions noted are these: Escherichia coli, UBMS904TETM, 18 h, 18 hours at 35° C.
Assay [34] concerns E. coli PRP1 Tet A. Nature of the assay: microbe, parasite or virus in culture. The settings on record: Escherichia coli, PRP1TETA, 18 h, 18 hours at 35° C.

Where a name gives a salt, the structure may show the parent alone. Read-outs that look alike come from different tables or passages of the source. Where only a bound is given, the exact number is not on record here.

With `CN(C)CC(=O)Nc1c(Cl)cc2c(c1O)C(=O)C1=C(O)[C@]3(O)C(=O)C(C(N)=O)=C(O)[C@@H](N(C)C)C3CC1C2` (stereo partly drawn) [8-chloro-9-(N,N-dimethylglycylamido)-6-demethyl-6-deoxytetracycline], the “effectiveness against susceptible strains compared with minocycline” value in assay [1] is “equally as effective as minocycline”. Besides, the “in vitro activity against tetracycline resistant strains containing the tetM resistance determinant” value in assay [2] is given as “good in vitro activity”.

As to `CNCC(=O)Nc1c(Cl)cc2c(c1O)C(=O)C1=C(O)[C@]3(O)C(=O)C(C(N)=O)=C(O)[C@@H](N(C)C)C3CC1C2` (stereo partly drawn) [I, [4S-(4α,12aα)]-8-Chloro-4-(dimethylamino)-1,4,4a,5,5a,6,11,12a-octahydro-3, 10,12,12a-tetrahydroxy-1,11-dioxo-9-[[(methylamino)acetyl]amino]-2-naphthacenecarboxamide dihydrochloride], the MIC was over 32 µg/mL in assay [3] (IVES2943, S. aureus IVES 2943, 18 hours at 35° C., read-out: MIC); 0.5 µg/mL in [4]; 1 µg/mL in [5]; over 32 µg/mL in assay [6] (read-out: MIC); 0.5 µg/mL in assay [7]; 16 µg/mL in assay [8]. In addition, the MIC amounted to 2 µg/mL in [9]; 0.5 µg/mL in assay [10]; 0.25 µg/mL in assay [11] (ATCC29212, 18 h, 18 hours at 35° C.); 0.25 µg/mL in assay [12]; 0.5 µg/mL in assay [13]; 0.25 µg/mL in assay [14]. For the same molecule, the MIC in [15] is 0.5 µg/mL; in [16] it was 2 µg/mL; in assay [17] it was 1 µg/mL; in [18] (AVHAH883, 18 h, 18 hours at 35° C.) it was 2 µg/mL; in assay [19], 1 µg/mL; in assay [20], 2 µg/mL. In addition, the MIC in [21] was 1 µg/mL; in assay [22] (18 h), 16 µg/mL; in [23], 0.5 µg/mL; in assay [24] it was 1 µg/mL; in [25] (18 h), 16 µg/mL; in assay [26], over 32 µg/mL. The MIC is 0.5 µg/mL in [27]; 0.5 µg/mL in [28] (read-out: MIC); over 32 µg/mL in assay [29] (IVES1983, S. aureus IVES 1 983, 18 hours at 35° C., read-out: MIC); 1 µg/mL in assay [30]; 0.5 µg/mL in [31]; 16 µg/mL in assay [32] (NEMC87210, 18 h, 18 hours at 35° C.). Moreover, the MIC in assay [33] is 1 µg/mL; in assay [34], 16 µg/mL.

As to `CCCNCC(=O)Nc1c(Cl)cc2c(c1O)C(=O)C1=C(O)[C@]3(O)C(=O)C(C(N)=O)=C(O)[C@@H](N(C)C)C3CC1C2` (stereo partly drawn) [F, [4S-(4α,12aα)]-8-Chloro-4-(dimethylamino)-1,4,4a,5,5a,6,11,12a-octahydro-3,10,12,12a-tetrahydroxy-1,11-dioxo-9-[[(propylamino)acetyl]amino]-2-naphthacenecarboxamide dihydrochloride], the MIC in [3] (IVES2943, 18 h) was 16 µg/mL; in assay [4], 0.5 µg/mL; in assay [5] it was 1 µg/mL; in assay [6] (18 h), 16 µg/mL; in assay [7], 0.25 µg/mL; in assay [8], 1 µg/mL. Moreover, the MIC was found to be 0.5 µg/mL in assay [9]; 0.25 µg/mL in assay [10]; 0.12 µg/mL in [11] (ATCC29212, 18 hours at 35° C., read-out: MIC); 0.12 µg/mL in assay [12]; 0.25 µg/mL in [13]; 0.12 µg/mL in assay [14]. The MIC was 0.5 µg/mL in assay [15]; 1 µg/mL in assay [16]; 0.5 µg/mL in [17]; 4 µg/mL in assay [18] (AVHAH883, 18 hours at 35° C., read-out: MIC); 0.5 µg/mL in [19]; 0.5 µg/mL in [20]. Moreover, the MIC in [21] came out at 0.25 µg/mL; in [22] (read-out: MIC), 8 µg/mL; in [23] it was 0.25 µg/mL; in [24], 0.5 µg/mL; in assay [25] (Ps. acruginosa ATCC 27853, 18 hours at 35° C., read-out: MIC) it was 32 µg/mL; in [26], 8 µg/mL. Also, the MIC in [27] came to 0.5 µg/mL; in [28] (18 h), 0.25 µg/mL; in [29] (IVES1983, 18 h) it was 8 µg/mL; in [30], 0.5 µg/mL; in assay [31], 0.25 µg/mL; in assay [32] (NEMC87210, 18 hours at 35° C., read-out: MIC), 2 µg/mL. Also, the values for the MIC in assay [33] and in assay [34] were 0.5 µg/mL and 4 µg/mL, respectively.

The values are drawn from patent publication US5495032A, “Process for producing 7-(substituted)-8-(substituted-9-[(substituted glycyl)amido]-6-demethyl-6-deoxytetracyclines” (priority 1994, dated 1996).
